A word on the MIC: it is the smallest concentration in the dilution series that meets the test's criterion for growth inhibition. Usually HC50 stands for the concentration giving 50% haemolysis.

Six compounds from ChEMBL document CHEMBL5113489, “Design, synthesis, and biological evaluation of membrane-active honokiol derivatives as potent antibacterial agents” (Eur J Med Chem, 2022) can be followed below.

In data set [1] the test system is Staphylococcus aureus. Description: In vivo antibacterial activity against Staphylococcus aureus ATCC 43300 in septicemia mouse model assessed as log reduction in bacterial load in kidney at 5 mg/kg, administered every 12 hrs for 3 days. It counts as functional.
The subject of data set [2] is Staphylococcus aureus. Description: In vivo antibacterial activity against Staphylococcus aureus ATCC 43300 in septicemia mouse model assessed as log reduction in bacterial load in liver at 5 mg/kg, administered every 12 hrs for 3 days. Type of data set: functional.
Data set [3] concerns Staphylococcus aureus. Description: In vivo antibacterial activity against Staphylococcus aureus ATCC 43300 in septicemia mouse model assessed as log reduction in bacterial load in spleen at 5 mg/kg, administered every 12 hrs for 3 days. Type of data set: functional.
For data set [4], the system named is Staphylococcus aureus. Description: Antibacterial activity against Staphylococcus aureus ATCC 43300 assessed as resistance development by measuring fold increase in MIC. It counts as functional.
For data set [5], the system named is Escherichia coli. Description: Antibacterial activity against Escherichia coli ATCC 25922. It counts as functional.
Data set [6] can be described thus: Selectivity index, ratio of HC50 for hemolytic activity in sheep RBC to MIC for antibacterial activity against Staphylococcus aureus ATCC 43300. It counts as toxicity. Conditions: sheep red blood cells (erythrocytes).
The nature of data set [7]: Hemolytic activity in sheep RBC. It counts as toxicity, cell-based, Ovis aries, Erythrocyte. Conditions: sheep red blood cells (erythrocytes).
For data set [8], the system named is Staphylococcus aureus. Description: Antibacterial activity against Staphylococcus aureus ATCC 31007. It counts as functional.
Data set [9] has as its system Staphylococcus aureus. Description: Antibacterial activity against Staphylococcus aureus ATCC 25923. It counts as functional.
A further data set concerns Pseudomonas aeruginosa. Description: Antibacterial activity against Pseudomonas aeruginosa ATCC 27853. Type of data set: functional.
For another data set, the system named is Bacillus subtilis. Description: Antibacterial activity against Bacillus subtilis ATCC 9372. It counts as functional.
In data set [10] the test system is Staphylococcus aureus. Description: Antibacterial activity against Staphylococcus aureus ATCC 43300. Type of data set: functional.
The subject of data set [11] is Escherichia coli. Description: Antibacterial activity against Escherichia coli ATCC 25922 assessed as resistance development by measuring fold increase in MIC. It counts as functional.

As for `O=C(O)c1cn(C2CC2)c2cc(N3CCNCC3)c(F)cc2c1=O` [CIPROFLOXACIN], the “log(activity)” value in the data set with Staphylococcus aureus [1] was 1.56; in the data set on Staphylococcus aureus [2], 2.01; in the data set on Staphylococcus aureus [3], 1.52.
On to `CCn1cc(C(=O)O)c(=O)c2cc(F)c(N3CCNCC3)cc21` [NORFLOXACIN], for which, in the data set with Staphylococcus aureus [4], the “fold change (FC)” value was found to be 256.
For the compound `C=CCc1ccc(OCC(=O)NCCC[N+](C)(C)CCCCCCCCCC)c(-c2ccc(OCC(=O)NCCC[N+](C)(C)CCCCCCCCCC)c(CC=C)c2)c1.[Br-].[Br-]`, the MIC in the data set on Escherichia coli [5] amounted to 32 µg/mL; in the data set with Staphylococcus aureus [8], 4 µg/mL; against Staphylococcus aureus [9], 2 µg/mL; in the data set on Pseudomonas aeruginosa it was 128 µg/mL; with Bacillus subtilis, 8 µg/mL; against Staphylococcus aureus [10], 4 µg/mL. In data set [6], the selectivity ratio was found to be 13.2. In [7], this compound gave an HC50 of 53 µg/mL.
For the compound `C=CCc1ccc(OCC(=O)NC(CCCCN)C(=O)NCCCCCCCCCC)c(-c2ccc(OCC(=O)NC(CCCCN)C(=O)NCCCCCCCCCC)c(CC=C)c2)c1.O=C(O)C(F)(F)F.O=C(O)C(F)(F)F` (stereo not given), the MIC against Escherichia coli [5] is 16 µg/mL; with Staphylococcus aureus [8] it was 8 µg/mL; against Staphylococcus aureus [9], 4 µg/mL; against Pseudomonas aeruginosa, 16 µg/mL; with Bacillus subtilis, 4 µg/mL; in the data set on Staphylococcus aureus [10], 4 µg/mL. The selectivity ratio in data set [6] was over 320. Further, the 50% haemolytic concentration (HC50) in [7] is over 1280 µg/mL.
For COLISTIN, the minimal inhibitory concentration (MIC) is 2 µg/mL against Escherichia coli [5]; 128 µg/mL with Staphylococcus aureus [8]; 64 µg/mL against Staphylococcus aureus [9]; 1 µg/mL against Pseudomonas aeruginosa; 8 µg/mL in the data set on Bacillus subtilis; 64 µg/mL against Staphylococcus aureus [10]. Also, the fold change (FC) in the data set on Escherichia coli [11] was determined as 64.
As to `C=CCc1ccc(OCC(=O)NCCC[N+](C)(C)CCCCCCCC)c(-c2ccc(OCC(=O)NCCC[N+](C)(C)CCCCCCCC)c(CC=C)c2)c1.[Br-].[Br-]`, the minimum inhibitory concentration (MIC) in the data set on Escherichia coli [5] stood at 8 µg/mL; in the data set on Staphylococcus aureus [8], 4 µg/mL; against Staphylococcus aureus [9], 2 µg/mL; against Pseudomonas aeruginosa, 16 µg/mL; in the data set on Bacillus subtilis, 4 µg/mL; in the data set with Staphylococcus aureus [10], 2 µg/mL. Besides, the selectivity ratio in data set [6] was determined as 61.5. For the same compound, the HC50 in data set [7] was 123 µg/mL.
